The record followed here is a melting point compilation (Tetko et al.; mined from patent text by program, amines drawn as free bases though some values may be those of a salt).

`COC1=CC(=O)C2CC=CCC2C1=O` (stereo not drawn) came in with a melting point of 120 to 122 °C. In the case of `COc1ccccc1CN[C@@H]1[C@@H]2CCN([C@H](CCc3ccccc3)C2)[C@@H]1C(c1ccccc1)c1ccccc1` (relative stereo), the melting point was in the range of 107 to 108 °C. In the case of `Cc1cc(Br)cc(-c2ccc3c(c2)C(C)(C)OC(=S)N3)c1` it was 183 to 184 °C. In the case of `N#Cc1c(OCC(F)(F)F)nc(N)nc1N1CCc2ccccc2CC1` it was 145 to 147 °C; in that of `CC(C)(C)n1nc(Cc2ccccc2)c2c(N)nc(-c3ccncc3)nc21`, 188 to 189 °C; in that of `COc1ccc(CSC#N)cc1OCc1ccccc1`, 70 to 74 °C.

In turn, `OC(CCNCc1ccccc1)(c1ccccc1)c1ccccc1` registered a melting point of 145 to 146 °C.

Consider `CCOC(=O)C(CC)C(=O)N1NCCCC1C(=O)OC(C)(C)C` (stereo not drawn), for which the melting point was in the range of 78 to 79 °C. Regarding `COc1cccc(Nc2cc(Nc3ccc(F)c(Cl)c3)ncn2)c1`, the melting point lay within 214 to 216 °C.

`CN(c1ccc(Cl)c2cc(-c3ncc(CO)s3)[nH]c12)S(=O)(=O)c1cccs1` had a melting point of 225 to 226 °C. `CC(C)(C)OC(=O)NCCn1c(=S)[nH][nH]c(=O)c1=O` displayed a melting point of 160 °C. The same measure for `CC1(C)Oc2ccc([N+](=O)[O-])cc2C2OC21` (stereo not drawn): 91 to 93 °C; for `OC1CC2c3ccccc3CCN2C2CCCCC12` (stereo not drawn): 140 to 142 °C. The same measure for `Cc1cc(OCc2ccccc2)c(C)cc1C=O`: 48 to 49 °C; for `C=CCOc1cc2oc(=O)ccc2cc1C`: 124 to 125 °C. In the case of `CN1C(=O)CN(N=Cc2ccccc2)C(c2ccccc2)c2cc(Cl)ccc21` (stereo not drawn) it was 157 to 158 °C; in that of `O=C(O)/C(=C/c1ccc(OCc2ccccc2)cc1OCc1ccccc1)NC(=O)c1ccccc1`, 149 to 150 °C. In the case of `COc1cc(C=CN(C)C)ccc1[N+](=O)[O-]`, the melting point was in the range of 57 to 58.5 °C. The same measure for `COC(=O)N1C(C)=NC(C)=C(C(=O)NCCCN2CCC(C(=O)OC)(c3ccccc3)CC2)C1c1ccc(F)c(F)c1` (stereo not drawn): 55 to 57 °C; for `O=S(=O)(Nc1ccc2c(OCc3ccc(C4CCCCC4)cc3)cccc2c1)C(F)(F)F`: 108 to 110 °C.

`NS(=O)(=O)c1cc(Cl)ccc1S` registered a melting point of 142 to 144 °C. `CCOC(=O)c1sc(-n2cn[nH]c2=O)nc1C` yielded a melting point of 165 to 167 °C. `CCC(CC)N1CCC(CNc2ccc(Cl)cc2C(=O)Nc2ccc(Cl)cn2)CC1`: the melting point fell in the range of 136 to 138 °C. In the case of `Cc1nc(C[C@H]2CC[C@@](C)(NCC(=O)N3C[C@@H](F)C[C@H]3C#N)C2(C)C)no1` it was 121 to 123 °C; in that of `COc1ccc(C(C)C)cc1-c1cc(C(=O)NCCc2ccccc2)c(OCc2ccccc2)cc1OCc1ccccc1`, 138 to 140 °C. In turn, `CCCCN(C(=O)CNC(=O)c1cc2ccccc2n1CC(=O)OC)c1c(OC)cc(C)cc1OC` returned a melting point of 139 °C. On to `CC(C)(C)c1ccc(C(=O)NNS(=O)(=O)c2ccccc2)cc1`, for which the melting point was in the range of 197 to 199 °C. Molecule `O=c1[nH]c2ccc([N+](=O)[O-])cc2c(=O)n1CCCN1CC=C(c2ccc(Cl)cc2)CC1` had a melting point of 205 to 207 °C. Turning to `CC1=C(S(=O)(=O)c2ccc(C)cc2)C(c2ccc(C)cc2)C(C#N)=C(CC(C)C)N1` (stereo not drawn), the melting point fell in the range of 135 to 137 °C. The molecule `Clc1cc2c(cc1Cl)CCC(N1CCCC1)=C2` registered a melting point of 141 to 142 °C. Molecule `CCCCN1CN(C2CC(OC(=O)c3ccccc3C)C(COC(=O)c3ccccc3C)O2)C(=O)NC1=O` (stereo not drawn) came in with a melting point of 170 to 172 °C. Regarding `O=C(O)CCCCCCc1ccc(Cl)cc1`, the melting point lay in the range of 75 to 78 °C.

As to `CC(=O)N1CCO[C@@H]2c3ccccc3OCC[C@H]21` (relative stereo), the melting point is 97 to 98 °C.

`Cc1nn2c3c1c(=O)[nH]c(=O)n3CC=C2c1cc(Cl)ccc1Cl` had a melting point of 205 to 209 °C. As to `Oc1cnc2c(c1)CCC(c1ccc(Cl)c(Cl)c1)O2` (stereo not drawn), the melting point was in the range of 218 to 219 °C. `Cc1nc(-n2cnn(Cc3ccc(F)cc3)c2=O)sc1C(=O)NCc1cc[nH]n1` yielded a melting point of 178 to 179 °C. `CCOC(=O)C(C)NC(=O)c1cc(C)on1` (stereo not drawn) registered a melting point of 65 to 66 °C. As to `Nc1nc2c(s1)CC(NC(=O)CNC(=O)[C@@H](Cc1ccccc1)NS(=O)(=O)Cc1ccccc1)CC2` (stereo partly drawn), the melting point was in the range of 119 to 122 °C.

`CN1CC(C(=O)CN2CCOCC2)CC2c3cccc4c3c(cn4C)CC21` (stereo not drawn) displayed a melting point of 198 to 200 °C.

`Cc1ccc(-c2ccc(F)cc2)cc1-c1c(O)c(C)nn(C)c1=O` registered a melting point of 216 to 217 °C.

Molecule `C[C@H]1CC[C@H](Nc2nccc(-n3ncc4c([N+](=O)[O-])cccc43)n2)CC1` yielded a melting point of 254 to 255 °C. For the molecule `CCCC#CC[C@H](C[C@H](N)C(=O)O)C(=O)O`, the melting point is 200 to 201 °C. `Cc1c(-c2ccncc2)nc2n(c1=O)CCCN2` came in with a melting point of 242 to 243 °C. In the case of `CC1=C(C(N)=O)C(c2cccc([N+](=O)[O-])c2)n2ccnc2N1` (stereo not drawn) it was 238 to 240 °C; in that of `CN[C@H]1CCN(c2c(-c3ccccc3)c(C)c(C#N)c3nc(C(=O)N(C)C)oc23)C1`, 148 to 151 °C.

`CCN(CC)[C@@H]1CCC[C@H]1Nc1ccnc2cc(Cl)ccc12` (racemic) yielded a melting point of 186 to 190 °C.

As to `CC(C)(C)OC(=O)NCCNC(=O)c1cccc(Br)n1`, the melting point lay within 108 to 109 °C. In turn, `O=C1OC(c2ccccc2)(c2ccccc2)CC(O)=C1CCCc1ccccc1` came in with a melting point of 61 to 63 °C. In the case of `CCOC(=O)c1c(N2CCN(C(=O)c3cccs3)CC2)c2cnccc2n(CC(=O)c2ccccc2)c1=O`, the melting point was 157 °C. The same measure for `COc1ccc2c(c1)C(c1ccccc1)=Nn1c(C)cnc1C2`: 140 °C; for `CCOC(=O)CN(CP(=O)(ONNc1ccccc1)ONNc1ccccc1)C(=O)C(F)(F)F`: 113 to 116 °C. With `Cc1cc(Cl)cc(OC2=NS(=O)(=O)CS2)c1`, the melting point was 151 °C. The molecule `Nc1ccc(-n2cnc(-c3ccc(C(F)(F)F)cc3)n2)cc1Cl` came in with a melting point of 148 °C. Take `O=C(O)CCc1cc(C(c2cc(F)ccc2F)S(=O)(=O)c2ccc(C(F)(F)F)cc2)c(Cl)cn1` (stereo not drawn): the melting point was in the range of 166 to 167 °C. In the case of `CCn1nc(-c2ccc(OC)c(F)c2)c(-c2ccc(OC)cc2)cc1=O` it was 123 to 124 °C; in that of `COCCOc1ccc2[nH]c(=O)n(C3CCCCC3)c2c1`, 182 °C; in that of `Cc1cccc(CCCCCCCCC(=O)O)c1`, 39 to 40 °C. In the case of `[N-]=[N+]=NCCCC(=O)N1CCc2c(OC(CO)CO)ccc([N+](=O)[O-])c21` it was 78 to 79 °C; in that of `Cc1ccc(-n2nc(C(N)=O)nc2-c2ccccc2)cc1C`, 169 to 170 °C. The molecule `C[Si](C)(C)C#Cc1cn(-c2c(Cl)cc(C(F)(F)F)cc2Cl)nc1C(F)(F)F` gave a melting point of 105 to 108 °C. `Cn1ncc2cc(NC(=O)Nc3ccc(C(F)(F)F)cc3)ccc21` showed a melting point of 252 to 254 °C.

`O=C(Cl)c1ccc(S(=O)(=O)NC(=O)c2ccccc2)cc1` showed a melting point of 180 to 182 °C. For the molecule `CNCC(C(=O)O)c1ccc(O)cc1` (stereo not drawn), the melting point was 218 to 221 °C. For `CSCCCN1C(=O)C(NC(=O)c2cc3ccccc3[nH]2)N=C(c2ccccc2)c2ccccc21` (racemic), the melting point was in the range of 216 to 221 °C. Take `CCOC(=O)c1cn(CC)c2nc(N3CCC(NC(C)=O)C3)c(F)cc2c1=O` (stereo not drawn): the melting point is 266 to 269 °C. Turning to `COCC(O)CN1CCN(c2cc3c(cc2F)c(=O)c(C(=O)O)c2n3CCS2)CC1` (stereo not drawn), the melting point came out at 224 °C. For the molecule `CC1(C)[C@H](CN2CCCCS2(=O)=O)CC[C@]1(C)NCC(=O)N1C[C@@H](F)C[C@H]1C#N`, the melting point fell in the range of 186 to 190 °C.

`CCOc1ccc(CCNC(=O)/C=C/c2cccs2)cc1S(N)(=O)=O` returned a melting point of 55 °C.

The molecule `CCOC(=O)c1cc(C#N)c(C)nc1NC` gave a melting point of 103 to 105 °C.

With `COC(=O)CN(NC(N)=O)c1ccc(OC)c(C)c1`, the melting point was in the range of 174 to 176 °C. The same measure for `CCCn1cc(Cc2ccc(C(=O)NS(=O)(=O)c3ccccc3Br)cc2OC)c2cc(CCC(C)C(=O)N(C)C)ccc21` (stereo not drawn): 96 to 99 °C; for `Nc1ccccc1Cn1[nH]c2ccccc2c1=O`: 204 to 205 °C. The same measure for `CCCCc1nnc2ccccc2c1O`: 180 °C; for `Cc1ccc2oc(N(C=O)[C@@H](Cc3ccccn3)c3ncc(-c4ccc(N5CCOCC5)cc4)n3C)cc2c1`: 125 to 127 °C; for `COc1c2c(c(OC)c(OC)c1OC)CC(CCCCCCC1Cc3c(c(OC)c(OC)c(OC)c3OC)C1)C2`: 100 to 108 °C. In the case of `CCOC(=O)c1cccc(NC(=O)C2=C(C)OCCS2)c1` it was 100 to 102 °C; in that of `CCCCCCCCCCCCNC=C1C(=O)ON=C1C`, 57 °C. With `COc1c(N2CC(=NO)C3(CC3)C2)c(F)cc2c(=O)c(C(=O)O)cn(C3CC3)c12`, the melting point fell in the range of 233 to 235 °C.

`COc1cc2c(cc1OC)C(C(S)(C#N)c1ccccc1C(=O)O)=NCC2` (stereo not drawn): the melting point fell in the range of 245 to 247 °C. As for `CCN(CC)CCSC1=C(C#N)C(c2ccccn2)(c2ccccn2)C(=O)N1`, the melting point lay within 135 to 136 °C. `CC(C)c1cc(O)n[nH]1` gave a melting point of 189 to 193 °C. In the case of `O=C(c1cc(Cc2ccccc2)cc(Cn2ccnc2)c1)c1cc(Cl)c2cccnc2c1O` it was 148 to 150 °C; in that of `COc1cc(CCC#N)c(Br)cc1OCc1ccccc1`, 52 to 53 °C. `CC(=O)OC1CSC(Oc2cc(-c3ccnc(F)c3)cnc2F)C(OC(C)=O)C1OC(C)=O` (stereo not drawn) had a melting point of 142 to 144 °C. In turn, `CC(C)Oc1c(C(=O)Nc2nnn[nH]2)[nH]c(Br)c1Br` came in with a melting point of 194 to 196 °C.

`CN(C)C(=O)c1ccc(CNC(=O)C2Cc3ccccc3N2S(=O)(=O)c2ccc(-c3cccc(C(F)(F)F)c3)cc2)cc1` (stereo not drawn) came in with a melting point of 70 °C. Take `CC(O)Cc1c2c(cc3c(=O)cc(C(=O)O)oc13)CCCC2` (stereo not drawn): the melting point turned out to be 235 °C.

`CCCCCCCC(O)C(C)(C)C(=O)O` (stereo not drawn) showed a melting point of 39 to 41 °C.

The term melting point denotes the temperature, or range, at which the solid turns liquid.
